The subject of the assay is BDF1 mice, intracerebral L1210 leukemia, survival T/C. The assay can be described thus: NCI In Vivo Anticancer Drug Screen. Data for tumor model L1210 Leukemia (intracerebral) in B6D2F1 (BDF1) mice. As to conditions: higher = longer survival. In outline:
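Survival measured in treated and vehicle-control tumour-bearing mice; value = T/C.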

Setting [1] is: endpoint: mean survival time, dose: 13.0 mg/kg/injection, schedule: Q01DX001 (ip), vehicle: saline.

Values joined by “and” are separate entries in the source; they are usually repeats but may differ in a detail not shown here. Equal entries are not always repeated. Toxic doses and inconclusive results are not listed.

Turning to `CCS(=O)(=O)Nc1cccc(Nc2c3cccc(C)c3nc3c(C)cccc23)c1OC`, the T/C (endpoint: mean survival time, dose: 12.5 mg/kg/injection, schedule: Q01DX009 (ip), vehicle: water) is 117 % of control; the T/C (endpoint: mean survival time, dose: 12.5 mg/kg/injection, schedule: Q01DX009 (sc), vehicle: water) was 105 % of control; the T/C (endpoint: mean survival time, dose: 25.0 mg/kg/injection, schedule: Q01DX009 (ip), vehicle: water) was 92 % of control; the T/C (endpoint: mean survival time, dose: 25.0 mg/kg/injection, schedule: Q01DX009 (sc), vehicle: water) is 118 % of control; the T/C (endpoint: mean survival time, dose: 50.0 mg/kg/injection, schedule: Q01DX009 (sc), vehicle: water) was 113 % of control; the T/C (endpoint: mean survival time, dose: 100.0 mg/kg/injection, schedule: Q01DX009 (sc), vehicle: water) was 104 % of control.

Take `Cc1cc(C)c(NC(=O)N(CCCl)N=O)c(C)c1`: the T/C is, setting by setting: (endpoint: mean survival time, dose: 5.0 mg/kg/injection, schedule: Q01DX001 (ip), vehicle: other) 97 % of control; (endpoint: mean survival time, dose: 7.5 mg/kg/injection, schedule: Q01DX001 (ip), vehicle: other) 98 % of control; (endpoint: mean survival time, dose: 10.0 mg/kg/injection, schedule: Q01DX001 (ip), vehicle: other) 103 % of control; (endpoint: mean survival time, dose: 15.0 mg/kg/injection, schedule: Q01DX001 (ip), vehicle: other) 107 % of control and 117 % of control; (endpoint: mean survival time, dose: 20.0 mg/kg/injection, schedule: Q01DX001 (ip), vehicle: other) 115 % of control; (endpoint: mean survival time, dose: 128.0 mg/kg/injection, schedule: Q01DX001 (ip), vehicle: other) 101 % of control.

`CS(=O)(=O)Nc1ccc(Nc2c3ccccc3nc3cc(Cl)ccc23)cc1`: the T/C (endpoint: mean survival time, dose: 10.0 mg/kg/injection, schedule: Q01DX009 (ip), vehicle: saline) was 99 % of control; the T/C (endpoint: mean survival time, dose: 10.0 mg/kg/injection, schedule: Q01DX009 (sc), vehicle: saline) is 99 % of control; the T/C (endpoint: mean survival time, dose: 20.0 mg/kg/injection, schedule: Q01DX009 (ip), vehicle: saline) was 98 % of control; the T/C (endpoint: mean survival time, dose: 20.0 mg/kg/injection, schedule: Q01DX009 (sc), vehicle: saline) is 102 % of control; the T/C (endpoint: mean survival time, dose: 40.0 mg/kg/injection, schedule: Q01DX009 (ip), vehicle: saline) was 106 % of control; the T/C (endpoint: mean survival time, dose: 40.0 mg/kg/injection, schedule: Q01DX009 (sc), vehicle: saline) is 114 % of control. Also, the T/C is, setting by setting: (endpoint: mean survival time, dose: 80.0 mg/kg/injection, schedule: Q01DX009 (ip), vehicle: saline) 91 % of control; (endpoint: mean survival time, dose: 80.0 mg/kg/injection, schedule: Q01DX009 (sc), vehicle: saline) 114 % of control.

In the case of `O=CC(NC(=O)N(CCCl)N=O)C(O)C(O)C(O)CO` (configuration not stated), the T/C is, setting by setting: (endpoint: mean survival time, dose: 4.0 mg/kg/injection, schedule: Q01DX001 (ip), vehicle: carboxymethylcellulose (CMC)) 111 % of control; (endpoint: mean survival time, dose: 6.0 mg/kg/injection, schedule: Q01DX001 (ip), vehicle: carboxymethylcellulose (CMC)) 111 % of control; (endpoint: mean survival time, dose: 9.0 mg/kg/injection, schedule: Q01DX001 (ip), vehicle: carboxymethylcellulose (CMC)) 112 % of control; (endpoint: mean survival time, dose: 9.0 mg/kg/injection, schedule: Q01DX001 (ip), vehicle: saline) 110 % of control; (endpoint: mean survival time, dose: 13.0 mg/kg/injection, schedule: Q01DX001 (ip), vehicle: carboxymethylcellulose (CMC)) 123 % of control; under setting [1], 109 % of control. Also, the T/C reads like this: (endpoint: mean survival time, dose: 20.0 mg/kg/injection, schedule: Q01DX001 (ip), vehicle: carboxymethylcellulose (CMC)) 119 % of control; (endpoint: mean survival time, dose: 20.0 mg/kg/injection, schedule: Q01DX001 (ip), vehicle: saline) 112 % of control; (endpoint: mean survival time, dose: 30.0 mg/kg/injection, schedule: Q01DX001 (ip), vehicle: carboxymethylcellulose (CMC)) 119 % of control; (endpoint: mean survival time, dose: 30.0 mg/kg/injection, schedule: Q01DX001 (ip), vehicle: saline) 117 % of control; (endpoint: mean survival time, dose: 45.0 mg/kg/injection, schedule: Q01DX001 (ip), vehicle: carboxymethylcellulose (CMC)) 111 % of control; (endpoint: mean survival time, dose: 45.0 mg/kg/injection, schedule: Q01DX001 (ip), vehicle: saline) 106 % of control.

Consider `CCn1cnc2c(SC(C)C)ncnc21`, for which the T/C is 100 % of control (endpoint: mean survival time, dose: 16.0 mg/kg/injection, schedule: Q01DX Z (ip), vehicle: carboxymethylcellulose (CMC)); 109 % of control (endpoint: mean survival time, dose: 31.0 mg/kg/injection, schedule: Q01DX Z (ip), vehicle: carboxymethylcellulose (CMC)); 110 % of control (endpoint: mean survival time, dose: 62.0 mg/kg/injection, schedule: Q01DX Z (ip), vehicle: carboxymethylcellulose (CMC)).

Consider `Cc1nc(N)nc(N)c1-c1ccc(Cl)c(Cl)c1`, for which the T/C (endpoint: mean survival time, dose: 1.08 mg/kg/injection, schedule: Q01DX009 (ip), vehicle: saline) is 105 % of control; the T/C (endpoint: mean survival time, dose: 1.8 mg/kg/injection, schedule: Q01DX009 (ip), vehicle: saline) was 95 % of control; the T/C (endpoint: mean survival time, dose: 3.0 mg/kg/injection, schedule: Q01DX009 (ip), vehicle: saline) is 98 % of control; the T/C (endpoint: mean survival time, dose: 5.0 mg/kg/injection, schedule: Q01DX009 (ip), vehicle: saline) is 97 % of control; the T/C (endpoint: mean survival time, dose: 8.4 mg/kg/injection, schedule: Q01DX009 (ip), vehicle: saline) was 111 % of control; the T/C (endpoint: mean survival time, dose: 8.4 mg/kg/injection, schedule: Q04DX003 (ip), vehicle: saline) is 104 % of control. The T/C is, setting by setting: (endpoint: mean survival time, dose: 14.0 mg/kg/injection, schedule: Q04DX003 (ip), vehicle: saline) 96 % of control; (endpoint: mean survival time, dose: 23.0 mg/kg/injection, schedule: Q04DX003 (ip), vehicle: saline) 103 % of control; (endpoint: mean survival time, dose: 39.0 mg/kg/injection, schedule: Q04DX003 (ip), vehicle: saline) 93 % of control; (endpoint: mean survival time, dose: 65.0 mg/kg/injection, schedule: Q04DX003 (ip), vehicle: saline) 103 % of control; (endpoint: median survival time, dose: 0.62 mg/kg/injection, schedule: Q01DX009 (ip), vehicle: saline) 106 % of control; (endpoint: median survival time, dose: 1.25 mg/kg/injection, schedule: Q01DX009 (ip), vehicle: saline) 115 % of control. The T/C is, setting by setting: (endpoint: median survival time, dose: 5.0 mg/kg/injection, schedule: Q01DX009 (ip), vehicle: saline) 117 % of control; (endpoint: median survival time, dose: 10.0 mg/kg/injection, schedule: Q01DX009 (ip), vehicle: saline) 104 % of control.

In the case of `O=NN(CCCl)C(=O)N[C@H]1CCCC[C@H]1Cl`, the T/C is 103 % of control (endpoint: mean survival time, dose: 8.0 mg/kg/injection, schedule: Q01DX001 (ip), vehicle: carboxymethylcellulose (CMC)); 106 % of control and 110 % of control and 90 % of control (endpoint: mean survival time, dose: 12.0 mg/kg/injection, schedule: Q01DX001 (ip), vehicle: carboxymethylcellulose (CMC)); 106 % of control (endpoint: mean survival time, dose: 18.0 mg/kg/injection, schedule: Q01DX001 (ip), vehicle: carboxymethylcellulose (CMC)); 117 % of control (endpoint: mean survival time, dose: 40.0 mg/kg/injection, schedule: Q01DX001 (ip), vehicle: carboxymethylcellulose (CMC)); 281 % of control and 306 % of control (endpoint: mean survival time, dose: 51.0 mg/kg/injection, schedule: Q01DX001 (ip), vehicle: carboxymethylcellulose (CMC)); 198 % of control (endpoint: mean survival time, dose: 54.0 mg/kg/injection, schedule: Q01DX001 (ip), vehicle: carboxymethylcellulose (CMC)). For the same molecule, the T/C reads like this: (endpoint: mean survival time, dose: 62.0 mg/kg/injection, schedule: Q01DX001 (ip), vehicle: carboxymethylcellulose (CMC)) 159 % of control and 165 % of control and 176 % of control; (endpoint: mean survival time, dose: 72.0 mg/kg/injection, schedule: Q01DX001 (ip), vehicle: carboxymethylcellulose (CMC)) 251 % of control; (endpoint: mean survival time, dose: 90.0 mg/kg/injection, schedule: Q01DX001 (ip), vehicle: carboxymethylcellulose (CMC)) 209 % of control and 221 % of control and 270 % of control; (endpoint: mean survival time, dose: 101.0 mg/kg/injection, schedule: Q01DX001 (ip), vehicle: carboxymethylcellulose (CMC)) 413 % of control and 550 % of control; (endpoint: mean survival time, dose: 108.0 mg/kg/injection, schedule: Q01DX001 (ip), vehicle: carboxymethylcellulose (CMC)) 307 % of control; (endpoint: mean survival time, dose: 135.0 mg/kg/injection, schedule: Q01DX001 (ip), vehicle: carboxymethylcellulose (CMC)) 278 % of control and 305 % of control. Besides, the T/C (endpoint: mean survival time, dose: 203.0 mg/kg/injection, schedule: Q01DX001 (ip), vehicle: carboxymethylcellulose (CMC)) was 119 % of control and 94 % of control.

Turning to `O=NN(CCCl)C(=O)NC1CCC(O)CC1` (configuration not stated), the T/C runs as follows: (endpoint: mean survival time, dose: 13.0 mg/kg/injection, schedule: Q01DX001 (ip), vehicle: saline with Tween-80) 152 % of control; under setting [1], 177 % of control; (endpoint: mean survival time, dose: 20.0 mg/kg/injection, schedule: Q01DX001 (ip), vehicle: saline with Tween-80) 418 % of control; (endpoint: mean survival time, dose: 26.0 mg/kg/injection, schedule: Q01DX001 (ip), vehicle: saline) 448 % of control; (endpoint: mean survival time, dose: 30.0 mg/kg/injection, schedule: Q01DX001 (ip), vehicle: saline with Tween-80) 479 % of control; (endpoint: mean survival time, dose: 40.0 mg/kg/injection, schedule: Q01DX001 (ip), vehicle: saline) 479 % of control. The T/C is 286 % of control (endpoint: mean survival time, dose: 44.0 mg/kg/injection, schedule: Q01DX001 (ip), vehicle: saline with Tween-80); 322 % of control (endpoint: mean survival time, dose: 60.0 mg/kg/injection, schedule: Q01DX001 (ip), vehicle: saline); 96 % of control (endpoint: mean survival time, dose: 67.0 mg/kg/injection, schedule: Q01DX001 (ip), vehicle: saline with Tween-80); 114 % of control (endpoint: mean survival time, dose: 90.0 mg/kg/injection, schedule: Q01DX001 (ip), vehicle: saline).

Source of the values: PubChem BioAssay AID252 (DTP/NCI, 2004).
